Laboratory results published in patent publication US10538567B2, “Compounds as peptidic trigonal GLP1/glucagon/GIP receptor agonists” (priority 2016, dated 2020).
Numbered stars: 1 amine (or outer) side, 2 acyl side, 3 side chain; on linkers, the order of the positions; unused ones are H or OH. Square brackets hold non-standard residues; d marks the D form. Side chains are listed from the residue outwards. Peptide text beside a SMILES is read from it. * marks the point of attachment. γGlu = O=C(O)[C@H](CCC(=O)[*:2])N[*:1]; Palmitoyl = CCCCCCCCCCCCCCCC(=O)*; Aib = CC(C)(N)C(=O)O

What was measured:
[1] = Chemical stability assessment, UPLC-UV purity loss in buffer system A; format: physicochemical; details: 1 mg/ml, 25 mM acetate buffer pH 4.5 with m-cresol
Protocol: Prior to the chemical stability measurement of a peptide batch, its purity was determined through UPLC/MS. For stability testing the target concentration was 1 mg pure compound/ml. Therefore solutions from solid samples were prepared in a buffer system with a concentration of 1 mg/mL compound based on the previously determined % purity:
Chemical stability buffer system A) 25 mM acetate buffer pH 4.5, 3 mg/mL L-Methionine, 2.7 mg/mL m-cresol, 18 mg/mL Glycerol 85% Chemical stability buffer system B) 25 mM phosphate buffer pH 6.0, 3 mg/mL L-Methionine, 2.7 mg/mL m-cresol, 18 mg/mL Glycerol 85%
Peptide solutions were filtered through […] pore size and filled into aliquots under aseptic conditions. At starting point, UPLC-UV was performed by injection of 2 μl of the undiluted sample.
For chemical stability testing, aliquots were stored for 28 days at 5 and 40° C. After this time course the samples were centrifuged for 15 min at 2500 RCF. Then 2 μl of the undiluted supernatant were analysed with UPLC-UV.
The chemical stability was rated through the relative loss of purity calculated by the equation: [(purity at starting point)−(purity after 28 days at X° C.)]/(purity at starting point)]*100%
The purity is calculated as
[(peak area peptide)/(total peak area)]*100%
Peptide samples were prepared in Chemical stability buffer system A and the stability was assessed as described in Methods.

[2] = Thioflavin T (ThT) assay for physical stability (fibrillation); format: physicochemical; details: 3 mg/ml, 100 mM acetate pH 4.5 with m-cresol, 37° C. shaking
In short: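 Peptides at 3 mg/ml final with 100 μM ThT final in 100 mM acetate pH 4.5 containing 2.7 mg/mL m-cresol, eight replicates. Stressed at 37° C by repeated cycles of 10 s shaking at 960 rpm and 50 s rest. Fluorescence read every 20 minutes; lag time in hours taken from the sigmoidal kinetic curve.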

[3] = tested on: female diabetic db/db mice; assay: Acute effects after s.c. treatment on blood glucose in non-fasting female diabetic db/db mice; format: in vivo; details: single 30 μg/kg s.c.
Protocol: Female healthy, lean BKS.Cg-(lean)/OlaHsd and diabetes-prone, obese BKS.Cg-+Lepr^db/+Lepr^db/OlaHsd mice were ordered group housed from Envigo RMS Inc., shipped group housed and remained group housed in shoebox caging with wood chip bedding until day 15 of the predose phase. At the study start mice were approximately 12 weeks old.
Mice were housed under vivarium conditions including a 12 h light/dark cycle (light phase 04:00 AM-4:00 PM), room temperatures between 23-26° C. and a relative humidity between 30-70%. All animals had free access to water and Purina Fomulab Diet 5008.
On predose day 9 blood glucose and body mass (approximately between 08:00-10:00 AM) as well as HbA1c measurements were performed. On day 15 of the predose phase animals were assigned to treatment groups (n=8) and to new cages to match mean HbA1c and body masses between all db/db groups. An age-matched lean group was included in the study as a healthy, lean reference.
Prior to day 1 of the dosing phase, the test article was diluted with Phosphate Buffered Saline (PBS, Gibco, without CaCl2 and MgCl2) to a concentration of 1 mg/mL and aliquots of this stock solution were stored at approximately ≤−60° C. On day 1 of the dosing phase the stock aliquot was thawed and the injected test article solution was prepared fresh by diluting it with PBS to achieve the desired concentration.
On Day 1 of the dosing phase db/db mice were either treated once with a s.c. injection of PBS-vehicle or 30 μg/kg test article. The lean reference group was treated once with a s.c. injection of PBS-vehicle. The dosing was initiated and completed between 08:00 and 10:00 AM. The applied volume was 5 ml/kg and the dose was adjusted to the most recent body mass recording of each individual.
Animals had unlimited access to water and feed during the experiment. On day 1 of the dosing phase approximately 5 μL of blood were collected via tail clips at minute −30 and 0 prior to any other inlife activities. At minute 0 mice received a s.c. dose of either PBS-vehicle or 30 μg/kg test article. Further blood samples were harvested at hour 0.25, 0.5, 1, 1.5, 2, 3, 4, 6, 8, and 24 post-dose. Glucose measurements were performed in whole blood using AlphaTRAK glucometers. If the glucose concentrations of two measurements differed by more than 20 mg/dL a third value was recorded. The Area Under the Curve (AUC) for blood glucose was calculated via the trapezoid method and for the duration of the 24 post-dose hours.
In the Figures data are depicted as means±SEM. […] A One Way Analysis of Variance and multiple comparisons (Dunnett's Method) were performed comparing the group of diabetic, obese db/db vehicle mice (n=8) with each diabetic, obese db/db test article treated mice (n=8). […] Non-diabetic, lean-vehicle group data are depicted in the Figures serving as a reference dataset for the non-obese, non-diabetic state.

Compound: CCCCCCCCCCCCCCCC(=O)N[C@@H](CCC(=O)N[C@@H](CCC(=O)NCCCC[C@H](NC(=O)[C@H](CC(C)C)NC(=O)[C@H](CCCCN)NC(=O)[C@H](CO)NC(=O)[C@H](CC(C)C)NC(=O)[C@H](CC(=O)O)NC(=O)[C@H](CO)NC(=O)[C@@H](NC(=O)[C@H](Cc1ccccc1)NC(=O)[C@@H](NC(=O)CNC(=O)[C@H](Cc1c[nH]cn1)NC(=O)C(C)(C)NC(=O)[C@@H](N)Cc1c[nH]cn1)[C@@H](C)O)[C@@H](C)O)C(=O)N[C@@H](CCC(=O)O)C(=O)N[C@@H](CCC(=O)O)C(=O)N[C@@H](CCC(N)=O)C(=O)N[C@@H](CCCNC(=N)N)C(=O)N[C@@H](CCC(N)=O)C(=O)N[C@@H](CCCCN)C(=O)N[C@@H](CCC(=O)O)C(=O)N[C@@H](Cc1ccccc1)C(=O)N[C@H](C(=O)N[C@@H](CCC(=O)O)C(=O)N[C@@H](Cc1c[nH]c2ccccc12)C(=O)N[C@@H](CC(C)C)C(=O)N[C@@H](CCCCN)C(=O)N[C@@H](C)C(=O)NCC(=O)NCC(=O)N[C@@H](Cc1c[nH]cn1)C(=O)N1CCC[C@H]1C(=O)N[C@@H](CO)C(=O)NC(C)(C)C(=O)N[C@@H](CCCCN)C(=O)N1CCC[C@H]1C(=O)N1CCC[C@H]1C(=O)N1CCC[C@H]1C(=O)N[C@@H](CCCCN)C(N)=O)[C@@H](C)CC)C(=O)O)C(=O)O [SEQ ID NO: 6, H-Aib-H-G-T-F-T-S-D-L-S-K-L-K[gGlu-gGlu-Palm]-E-E-Q-R-Q-K-E-F-I-E-W-L-K-A-G-G-H-P-S-Aib-K-P-P-P-K-NH2]
- Chemical stability [relative purity loss 28 days 40° C.] (%) at pH 4.5 [1]: 7.1%
- Lag time before increase [2]: >45 h
- mean blood glucose concentration 24 hours post-dose relative to baseline [3]: at or close to baseline

Compound: CCCCCCCCCCCCCCCC(=O)N[C@@H](CCC(=O)N[C@@H](CCC(=O)NCCCC[C@H](NC(=O)[C@H](CC(C)C)NC(=O)[C@H](CCCCN)NC(=O)[C@H](CO)NC(=O)[C@H](CC(C)C)NC(=O)[C@H](CC(=O)O)NC(=O)[C@H](CO)NC(=O)[C@@H](NC(=O)[C@H](Cc1ccccc1)NC(=O)[C@@H](NC(=O)CNC(=O)[C@H](Cc1c[nH]cn1)NC(=O)C(C)(C)NC(=O)[C@@H](N)Cc1c[nH]cn1)[C@@H](C)O)[C@@H](C)O)C(=O)N[C@@H](CCC(=O)O)C(=O)N[C@@H](CCC(=O)O)C(=O)N[C@@H](CCC(N)=O)C(=O)N[C@@H](CCCNC(=N)N)C(=O)N[C@@H](CCC(N)=O)C(=O)N[C@@H](CCCCN)C(=O)N[C@@H](CCC(=O)O)C(=O)N[C@@H](Cc1ccccc1)C(=O)N[C@H](C(=O)N[C@@H](CCC(=O)O)C(=O)N[C@@H](Cc1c[nH]c2ccccc12)C(=O)N[C@@H](CC(C)C)C(=O)N[C@@H](CCCCN)C(=O)N[C@@H](C)C(=O)N[C@H](C)C(=O)NCC(=O)N[C@@H](Cc1c[nH]cn1)C(=O)N1CCC[C@H]1C(=O)N[C@@H](CO)C(=O)NC(C)(C)C(=O)N[C@@H](CCCCN)C(=O)N1CCC[C@H]1C(=O)N1CCC[C@H]1C(=O)N1CCC[C@H]1C(=O)N[C@@H](CCCCN)C(N)=O)[C@@H](C)CC)C(=O)O)C(=O)O [SEQ ID NO: 7, H-Aib-H-G-T-F-T-S-D-L-S-K-L-K[gGlu-gGlu-Palm]-E-E-Q-R-Q-K-E-F-I-E-W-L-K-A-dAla-G-H-P-S-Aib-K-P-P-P-K-NH2] (H-H[Aib]HGTFTSDLSKLK([γGlu-γGlu-Palmitoyl])EEQRQKEFIEWLKA[dA]GHPS[Aib]KPPPK-NH2)
- Chemical stability [relative purity loss 28 days 40° C.] (%) at pH 4.5 [1]: 8.1%
- Lag time before increase [2]: >45 h
- mean blood glucose concentration 24 hours post-dose relative to baseline [3]: at baseline
- time to normalise hyperglycemia to the non-fasting blood glucose concentrations of lean reference mice [3]: ≤ 6 h

Compound: CCCCCCCCCCCCCCCC(=O)N[C@@H](CCC(=O)N[C@@H](CCC(=O)NCCCC[C@H](NC(=O)[C@H](CC(C)C)NC(=O)[C@H](CCCCN)NC(=O)[C@H](CO)NC(=O)[C@H](CC(C)C)NC(=O)[C@H](CC(=O)O)NC(=O)[C@H](CO)NC(=O)[C@@H](NC(=O)[C@H](Cc1ccccc1)NC(=O)[C@@H](NC(=O)CNC(=O)[C@H](Cc1c[nH]cn1)NC(=O)C(C)(C)NC(=O)[C@@H](N)Cc1c[nH]cn1)[C@@H](C)O)[C@@H](C)O)C(=O)N[C@@H](CCC(=O)O)C(=O)N[C@@H](CCC(=O)O)C(=O)N[C@@H](CCC(N)=O)C(=O)N[C@@H](CCCNC(=N)N)C(=O)N[C@@H](CCC(N)=O)C(=O)N[C@@H](CCCCN)C(=O)N[C@@H](CCC(=O)O)C(=O)N[C@@H](Cc1ccccc1)C(=O)N[C@H](C(=O)N[C@@H](CCC(=O)O)C(=O)N[C@@H](Cc1c[nH]c2ccccc12)C(=O)N[C@@H](CC(C)C)C(=O)N[C@@H](CCCCN)C(=O)N[C@@H](C)C(=O)NCC(=O)NCC(=O)N1CCC[C@H]1C(=O)N1CCC[C@H]1C(=O)N[C@@H](CO)C(=O)NC(C)(C)C(=O)N[C@@H](CCCCN)C(=O)N1CCC[C@H]1C(=O)N1CCC[C@H]1C(=O)N1CCC[C@H]1C(=O)N[C@@H](CCCCN)C(N)=O)[C@@H](C)CC)C(=O)O)C(=O)O [SEQ ID NO: 8, H-Aib-H-G-T-F-T-S-D-L-S-K-L-K[gGlu-gGlu-Palm]-E-E-Q-R-Q-K-E-F-I-E-W-L-K-A-G-G-P-P-S-Aib-K-P-P-P-K-NH2]
- Chemical stability [relative purity loss 28 days 40° C.] (%) at pH 4.5 [1]: 10.3%
- Lag time before increase [2]: >45 h
- mean blood glucose concentration 24 hours post-dose relative to baseline [3]: at or close to baseline

Compound: CCCCCCCCCCCCCCCC(=O)N[C@@H](CCC(=O)N[C@@H](CCC(=O)NCCCC[C@H](NC(=O)[C@H](CC(C)C)NC(=O)[C@H](CCCCN)NC(=O)[C@H](CO)NC(=O)[C@H](CC(C)C)NC(=O)[C@H](CC(=O)O)NC(=O)[C@H](CO)NC(=O)[C@@H](NC(=O)[C@H](Cc1ccccc1)NC(=O)[C@@H](NC(=O)CNC(=O)[C@H](Cc1c[nH]cn1)NC(=O)C(C)(C)NC(=O)[C@@H](N)Cc1c[nH]cn1)[C@@H](C)O)[C@@H](C)O)C(=O)N[C@@H](CCC(=O)O)C(=O)N[C@@H](CCC(=O)O)C(=O)N[C@@H](CCC(N)=O)C(=O)N[C@@H](CCCNC(=N)N)C(=O)N[C@@H](CCC(N)=O)C(=O)N[C@@H](CCCCN)C(=O)N[C@@H](CCC(=O)O)C(=O)N[C@@H](Cc1ccccc1)C(=O)N[C@H](C(=O)N[C@@H](CCC(=O)O)C(=O)N[C@@H](Cc1c[nH]c2ccccc12)C(=O)N[C@@H](CC(C)C)C(=O)N[C@@H](CCCCN)C(=O)N[C@@H](C)C(=O)N[C@H](C)C(=O)NCC(=O)N1CCC[C@H]1C(=O)N1CCC[C@H]1C(=O)N[C@@H](CO)C(=O)NC(C)(C)C(=O)N[C@@H](CCCCN)C(=O)N1CCC[C@H]1C(=O)N1CCC[C@H]1C(=O)N1CCC[C@H]1C(=O)N[C@@H](CCCCN)C(N)=O)[C@@H](C)CC)C(=O)O)C(=O)O [SEQ ID NO: 9, H-Aib-H-G-T-F-T-S-D-L-S-K-L-K[gGlu-gGlu-Palm]-E-E-Q-R-Q-K-E-F-I-E-W-L-K-A-dAla-G-P-P-S-Aib-K-P-P-P-K-NH2] (H-H[Aib]HGTFTSDLSKLK([γGlu-γGlu-Palmitoyl])EEQRQKEFIEWLKA[dA]GPPS[Aib]KPPPK-NH2)
- Chemical stability [relative purity loss 28 days 40° C.] (%) at pH 4.5 [1]: 6.9%
- Lag time before increase [2]: >45 h
- mean blood glucose concentration 24 hours post-dose relative to baseline [3]: at or close to baseline
